Source: US12138256B2, “Treatment of cardiopulmonary disorders” (Bayer Aktiengesellschaft, priority 2021, dated 2024)

System: sGC (cGMP)
Assay: Phase I, healthy male subjects, 14 days inhalation: cGMP concentration (C-4.2)
Assay type: in vivo, human
Conditions: for cGMP change from baseline / cGMP concentration, mean +/− SD: 1000 μg
Description: Healthy white male subjects, aged 18 to 45 years and with a body mass index (BMI) above/equal 18.5 and below/equal 29.9 kg/m2 were treated in a clinical pharmacological phase I study for 14 days with inhaled once daily doses of 1000 μg (nominal dose) or Placebo of dry powder of example 4. The subjects inhaled the drug powder from capsules (see under D-1, e.g. tables 17 and 20) inserted into a handheld inhalation device by one deep inhalative breath into the deep parts of the lung. The intended substantial reduction of increased blood pressure in the central pulmonary blood vessels cannot be evaluated in subjects without pathophysiological impairment of lung function. As surrogate for drug concentration in the lung, plasma concentrations over time have been analysed. […] Drug activity/target engagement in healthy men was controlled in the healthy subjects by analysing blood samples for cGMP. Results are shown in as mean in table C4.2.1 and change to baseline in FIG. 76 and table C4.2.2.

[1] = −0 D 09 H 00 M (pretreatment day)
[2] = −0 D 12 H 00 M (pretreatment day)
[3] = −0 D 16 H 00 M (pretreatment day)
[4] = −0 D 18 H 00 M (pretreatment day)
[5] = −0 D 20 H 00 M (pretreatment day)
[6] = −0 D 22 H 00 M (pretreatment day)

O=C(O)c1ccc(CCN(CCc2ccccc2OCc2ccc(-c3ccc(C(F)(F)F)cc3)cc2Cl)[C@H]2CCCc3nc(C(=O)O)ccc32)cc1 [example 4, (5S)-{[2-(4-Carboxyphenyl)ethyl][2-(2-{[3-chloro-4′-(trifluoromethyl)biphenyl-4-yl]methoxy}phenyl)-ethyl]amino}-5,6,7,8-tetrahydroquinoline-2-carboxylic acid]
time until maximum cGMP values were reached (1000 μg once daily): 7 days | time until steady state of cGMP concentration (1000 μg once daily): ≤ 11 days | cGMP change from baseline (0 D 02 H 00 M): 4840 pM | cGMP concentration, mean +/− SD (0 D 02 H 00 M): 9170 pM | cGMP change from baseline (0 D 04 H 00 M): 7290 pM | cGMP concentration, mean +/− SD (0 D 04 H 00 M): 11600 pM | cGMP change from baseline (0 D 06 H 00 M): 9950 pM | cGMP concentration, mean +/− SD (0 D 06 H 00 M): 14300 pM | cGMP change from baseline (0 D 08 H 00 M): 10600 pM | cGMP concentration, mean +/− SD (0 D 08 H 00 M): 14900 pM | cGMP change from baseline (0 D 12 H 00 M): 7530 pM | cGMP concentration, mean +/− SD (0 D 12 H 00 M): 11800 pM | cGMP change from baseline (0 D 15 H 00 M): 6740 pM | cGMP concentration, mean +/− SD (0 D 15 H 00 M): 11100 pM | cGMP change from baseline (1 D 00 H 00 M): 2980 pM | cGMP concentration, mean +/− SD (1 D 00 H 00 M): 7310 pM | cGMP change from baseline (2 D 00 H 00 M): 4550 pM | cGMP concentration, mean +/− SD (2 D 00 H 00 M): 8880 pM | cGMP change from baseline (2 D 03 H 00 M): 13000 pM | cGMP concentration, mean +/− SD (2 D 03 H 00 M): 17300 pM | cGMP change from baseline (2 D 08 H 00 M): 16400 pM | cGMP concentration, mean +/− SD (2 D 08 H 00 M): 20800 pM | cGMP change from baseline (2 D 12 H 00 M): 12600 pM | cGMP concentration, mean +/− SD (2 D 12 H 00 M): 16900 pM | cGMP change from baseline (3 D 00 H 00 M): 5160 pM | cGMP concentration, mean +/− SD (3 D 00 H 00 M): 9490 pM | cGMP change from baseline (4 D 00 H 00 M): 6360 pM | cGMP concentration, mean +/− SD (4 D 00 H 00 M): 10700 pM | cGMP change from baseline (5 D 00 H 00 M): 5920 pM | cGMP concentration, mean +/− SD (5 D 00 H 00 M): 10300 pM | cGMP change from baseline (6 D 00 H 00 M): 5090 pM | cGMP concentration, mean +/− SD (6 D 00 H 00 M): 9420 pM | cGMP change from baseline (6 D 03 H 00 M): 13400 pM | cGMP concentration, mean +/− SD (6 D 03 H 00 M): 17700 pM | cGMP change from baseline (6 D 08 H 00 M): 20100 pM | cGMP concentration, mean +/− SD (6 D 08 H 00 M): 24500 pM | cGMP change from baseline (6 D 12 H 00 M): 13900 pM | cGMP concentration, mean +/− SD (6 D 12 H 00 M): 18200 pM | cGMP change from baseline (7 D 00 H 00 M): 6180 pM | cGMP concentration, mean +/− SD (7 D 00 H 00 M): 10500 pM | cGMP change from baseline (8 D 00 H 00 M): 6200 pM | cGMP concentration, mean +/− SD (8 D 00 H 00 M): 10500 pM | cGMP change from baseline (9 D 00 H 00 M): 6580 pM | cGMP concentration, mean +/− SD (9 D 00 H 00 M): 10900 pM | cGMP change from baseline (10 D 00 H 00 M): 6450 pM | cGMP concentration, mean +/− SD (10 D 00 H 00 M): 10800 pM | cGMP change from baseline (10 D 03 H 00 M): 12700 pM | cGMP concentration, mean +/− SD (10 D 03 H 00 M): 17100 pM | cGMP change from baseline (10 D 08 H 00 M): 17500 pM | cGMP concentration, mean +/− SD (10 D 08 H 00 M): 21900 pM | cGMP change from baseline (10 D 12 H 00 M): 13000 pM | cGMP concentration, mean +/− SD (10 D 12 H 00 M): 17300 pM | cGMP change from baseline (11 D 00 H 00 M): 6940 pM | cGMP concentration, mean +/− SD (11 D 00 H 00 M): 11300 pM | cGMP change from baseline (12 D 00 H 00 M): 8060 pM | cGMP concentration, mean +/− SD (12 D 00 H 00 M): 12400 pM | cGMP change from baseline (12 D 22 H 00 M): 6950 pM | cGMP concentration, mean +/− SD (12 D 22 H 00 M): 11300 pM | cGMP change from baseline (13 D 02 H 00 M): 9120 pM | cGMP concentration, mean +/− SD (13 D 02 H 00 M): 13400 pM | cGMP change from baseline (13 D 04 H 00 M): 12900 pM | cGMP concentration, mean +/− SD (13 D 04 H 00 M): 17300 pM | cGMP change from baseline (13 D 06 H 00 M): 17000 pM | cGMP concentration, mean +/− SD (13 D 06 H 00 M): 21400 pM | cGMP change from baseline (13 D 08 H 00 M): 17700 pM | cGMP concentration, mean +/− SD (13 D 08 H 00 M): 22000 pM | cGMP change from baseline (13 D 12 H 00 M): 12900 pM | cGMP concentration, mean +/− SD (13 D 12 H 00 M): 17200 pM | cGMP change from baseline (13 D 15 H 00 M): 12100 pM | cGMP concentration, mean +/− SD (13 D 15 H 00 M): 16400 pM | cGMP change from baseline (14 D 00 H 00 M): 5410 pM | cGMP concentration, mean +/− SD (14 D 00 H 00 M): 9740 pM | cGMP change from baseline (15 D 00 H 00 M): 2520 pM | cGMP concentration, mean +/− SD (15 D 00 H 00 M): 6850 pM | cGMP change from baseline (15 D 12 H 00 M): 3040 pM | cGMP concentration, mean +/− SD (15 D 12 H 00 M): 7370 pM | cGMP change from baseline (16 D 00 H 00 M): 2000 pM | cGMP concentration, mean +/− SD (16 D 00 H 00 M): 6330 pM | cGMP change from baseline (16 D 12 H 00 M): 2410 pM | cGMP concentration, mean +/− SD (16 D 12 H 00 M): 6740 pM | cGMP change from baseline (17 D 00 H 00 M): 400 pM | cGMP concentration, mean +/− SD (17 D 00 H 00 M): 4730 pM | cGMP change from baseline (20 D 00 H 00 M): 1220 pM | cGMP concentration, mean +/− SD (20 D 00 H 00 M): 5520 pM | cGMP change from baseline (FOLLOW-UP): 1520 pM | cGMP concentration, mean +/− SD (FOLLOW-UP): 5850 pM | cGMP concentration, mean +/− SD (−0 D 02 H 00 M (prior to first inhalation)): 4330 pM | cGMP change from baseline [1]: 224 pM | cGMP concentration, mean +/− SD [1]: 5490 pM | cGMP change from baseline [2]: 306 pM | cGMP concentration, mean +/− SD [2]: 5570 pM | cGMP change from baseline [3]: 676 pM | cGMP concentration, mean +/− SD [3]: 5940 pM | cGMP change from baseline [4]: −252.9 +/− 1345.9 | cGMP concentration, mean +/− SD [4]: 5010 pM | cGMP change from baseline [5]: −952.9 +/− 1984.7 | cGMP concentration, mean +/− SD [5]: 4310 pM | cGMP change from baseline [6]: −100.0 +/− 1403.1 | cGMP concentration, mean +/− SD [6]: 5160 pM | cGMP concentration, mean +/− SD (−1 D 02 H 00 M (pretreatment day)): 5260 pM
